This assay has as its target T1, Protein-glutamine gamma-glutamyltransferase 2 (Homo sapiens, UniProt P21980).
T1 sequence (P21980 whole entry): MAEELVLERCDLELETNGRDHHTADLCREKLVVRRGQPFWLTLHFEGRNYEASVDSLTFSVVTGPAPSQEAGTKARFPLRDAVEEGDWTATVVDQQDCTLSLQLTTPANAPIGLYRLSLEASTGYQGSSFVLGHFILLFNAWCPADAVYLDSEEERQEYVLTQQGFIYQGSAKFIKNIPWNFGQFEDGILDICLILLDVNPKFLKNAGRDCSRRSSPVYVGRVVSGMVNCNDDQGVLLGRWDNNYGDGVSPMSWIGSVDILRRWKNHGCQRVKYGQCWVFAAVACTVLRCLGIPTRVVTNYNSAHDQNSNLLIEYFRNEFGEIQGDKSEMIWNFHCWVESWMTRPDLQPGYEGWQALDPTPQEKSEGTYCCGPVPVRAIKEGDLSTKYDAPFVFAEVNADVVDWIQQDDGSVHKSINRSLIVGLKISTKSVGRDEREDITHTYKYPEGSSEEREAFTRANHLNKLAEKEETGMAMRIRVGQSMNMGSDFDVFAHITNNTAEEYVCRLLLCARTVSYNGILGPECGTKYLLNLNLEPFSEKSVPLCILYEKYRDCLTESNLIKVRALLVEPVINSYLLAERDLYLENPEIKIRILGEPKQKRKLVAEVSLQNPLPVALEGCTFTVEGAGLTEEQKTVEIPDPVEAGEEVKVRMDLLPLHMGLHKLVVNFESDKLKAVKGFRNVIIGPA
The assay can be described thus: TG Inhibition Assay. Conditions: pH 7.2.
Source text: Recombinant of human TG2 was expressed in E.coli and purified to >90% homogeneity.
With `O=C(N[C@@H](Cc1c[nH]c2ccc(O)cc12)C(=O)NCC1CC(Br)=NO1)OCc1ccccc1` (some centres undefined) [Dihydroisoxazole, 1f], the affinity, expressed as Ki, was 310 µM.

As for `O=C(N[C@@H](Cc1ccccc1)C(=O)NCC1CC(Br)=NO1)OCCc1ccccc1` (some centres undefined) [Dihydroisoxazole, 3d], the Ki amounted to 61 µM.

For the compound `O=C(N[C@@H](Cc1ccccc1)C(=O)NCC1CC(Br)=NO1)Oc1ccc2ccccc2c1` (some centres undefined) [Dihydroisoxazole, 3e], the Ki is 43 µM.

The compound `O=C(N[C@@H](Cc1ccccc1)C(=O)NCC1CC(Br)=NO1)OCC1=Cc2ccccc2S1(=O)=O` (some centres undefined) [Dihydroisoxazole, 3f] returned a Ki of 87 µM.

Source of the values: BindingDB's records for doi:10.1016/j.chembiol.2005.02.007 (Stanford University, 2005).
